Non-standard residues stand in square brackets, D forms with d. Primed or numbered codes have the meaning given here. No end group written: not given here. Kβ(3) = beta-amino acid residue (Lys analogue); β3hY = N[C@H](CC(=O)O)Cc1ccc(O)cc1; Kβ″ = beta-amino acid residue (K); β3hK = NCCCC[C@H](N)CC(=O)O; Yβ = β-tyrosine
Assays:
[1] = tested on: SJL/J mice exhibiting MBP (85-109) induced relapsing remitting form of EAE; test: Therapeutic activity in MBP (85-109) induced relapsing remitting EAE, treatment from day 11; type: in vivo; settings: for Therapeutic activity in comparison to GA (Therapeutic activity (Analogs) − Therapeutic activity GA) / Therapeutic activity in comparison to J5 (Therapeutic activity (Analogs) − Therapeutic activity (J5)) / Therapeutic activity = % reduction in cumulative clinical disability score: SJL/J mice, RR EAE; for Therapeutic activity in comparison to GA (Therapeutic activity (Analogs) − Therapeutic activity GA) / Therapeutic activity in comparison to J5 (Therapeutic activity (Analogs) − Therapeutic activity (J5)): 0.1 mg daily for two weeks; for Therapeutic activity = % reduction in cumulative clinical disability score: synthetic peptides, 0.1 mg daily for two weeks from day 11 post-immunization
Protocol: SJL/J and C57BL6/J mice procured from Jackson's laboratory (Bar Harbor, Me.) were maintained under standard housing conditions in the central animal facility at NII as per institutional ethical committee guidelines. 8-10 week old female SJL/J mice were used throughout the study.
(§1) To induce RR EAE or chronic progressive EAE, SJL/J or C57BL6/J mice were immunized subcutaneously with 0.2 mg of MBP (85-109) or 0.1 mg MOG (35-55) emulsified in CFA and 200 ng of pertussis toxin was injected intraperitoneally on day 0 and day 2 so as to permeablize the blood brain barrier. All the animals in various experimental groups were scored daily for clinical disability on a scale of 0-6 where 0=no neurological symptoms, 1=limp tail, 2=weakness of hind limbs or ataxia, 3=incomplete paralysis of hind limbs, 4=complete paralysis of hind limbs, 5=complete paralysis of all four limbs, 6=dead. Diseased animals were provided easy access to food and water.
GA, J91, J92, S101, S102, S103 for two weeks and scored for clinical disability.

[2] = tested on: relapsing remitting EAE in SJL/J mice; test: Prophylactic (pre-treatment) efficacy in relapsing remitting EAE; type: in vivo; settings: pre-treatment 0.5 mg in IFA; FIG. 2i
Protocol: as §1

[3] = tested on: spleenocytes; test: Th1/Th2 cytokine levels in culture supernates of spleenocytes from treatment groups; type: cell-based, mice; settings: spleenocytes at the end of four weeks; FIG. 4
Protocol: Levels of various cytokines in culture supernates were determined by sandwich ELISA using multiplex cytokine ELISA kit (Millipore). Briefly, 100 μl of cell culture supernates from various groups were incubated with antibody (against various pro and anti-inflammatory cytokines) coated fluorescent polystyrene beads in 96 well microtiter plates, stained with PE-conjugated secondary antibody, provided in the kit and samples were acquired on […] (Bio-rad).
Effect of a group of analogs comprising analogs viz.
Effect of β^3-homo amino acid containing copolymers viz S101, S102 and S103 on Th1/Th2 cytokine balance was studied in comparison to other copolymers viz. GA, J91, J92, for which culture supernates of spleenocytes grown in the presence of various copolymers, were assayed using ELISA to determine the levels of various cytokines. […] Most noteworthy change was in the levels of IL-2 in the S101, S102 and S103 treated groups, where the levels were brought down by 60-70%.

[4] = target: T1, HLA DR2 (Homo sapiens, UniProt P01903+P01911); test: Inhibition of binding of biotinylated MBP (85-99) to HLA DR2; settings: 5 μM competitor, 0.5 μM biotinylated MBP (85-99); FIG. 3
T1 construct: endogenous in cells; host or cells: MGAR lymphoblastoid B cell line (IHWG, Seattle)
Protocol: HLA DR2 molecules were affinity purified from MGAR (a lymphoblastoid B cell line expressing HLA DR2 obtained from IHWG, Seattle, Wash. —USA) cell line. Cells were cultured in RPMI 1640 supplemented with 10% FBS, 2 mM glutamine, 50 U/ml penicillin and 50 μg/ml streptomycin. The anti-DR antibody L243 was purchased from Santacruz Biotech.
HLA DR2 was purified to a purity of 90-95% by immunoaffinity purification. Briefly, MGAR cells were detergent solubilized to prepare the membrane fraction which was passed sequentially through sepharose CL-6B, normal mouse serum-affinity-gel, Protein A sepharose CL-4B and L243-protein A sepharose-CL-4B at a flow rate of around 10-11 ml/h. The final eluate was dialyzed against 0.1% deoxycholate, 10 mM Tris-HCl (pH 8.0) and concentrated using centricon concentrators from Millipore. Protein concentration was determined using bicinchoninic acid (BCA) assay (Sigma). The obtained protein fraction was also run on SDS-PAGE gel to confirm identity and purity.
Copolymers (GA, J91, J92, S101 to S109) and peptide analogs (S1-S82) at a final concentration of 5 μM were coincubated with biotinylated MBP (85-99; purchased from Bioconcept Labs Pvt. Ltd. India) at a final concentration of 0.5 μM and HLA DR2 (0.5 μg/sample) molecules for 40 h at 37° C. and transferred to a 96-well microtiter assay plates coated with 1 μg/well purified L243 mAb. Coating of microtiter plates was performed with 100 μl of L243 mAb in PBS for 18 h at 4° C. […] 3,3′,5,5′-tetramethylbenzidine (TMB, substrate for […]) was added to each well and absorbance at 410 nm was recorded on an ELISA reader (TECAN infinite M200).
Ability of analogs viz. […] Most of the analogs designed herein viz.
β^3-homo amino acid containing copolymers viz. […] Copolymers containing β^3-homo amino acids viz.

T1 sequence (P01903 26-254): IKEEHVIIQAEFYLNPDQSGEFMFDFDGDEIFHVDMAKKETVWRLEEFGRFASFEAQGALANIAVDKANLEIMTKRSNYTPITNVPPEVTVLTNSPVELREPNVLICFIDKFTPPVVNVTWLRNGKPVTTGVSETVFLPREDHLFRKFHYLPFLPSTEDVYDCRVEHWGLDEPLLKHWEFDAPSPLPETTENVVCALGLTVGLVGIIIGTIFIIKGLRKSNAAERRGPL
T1 sequence (P01911 30-266): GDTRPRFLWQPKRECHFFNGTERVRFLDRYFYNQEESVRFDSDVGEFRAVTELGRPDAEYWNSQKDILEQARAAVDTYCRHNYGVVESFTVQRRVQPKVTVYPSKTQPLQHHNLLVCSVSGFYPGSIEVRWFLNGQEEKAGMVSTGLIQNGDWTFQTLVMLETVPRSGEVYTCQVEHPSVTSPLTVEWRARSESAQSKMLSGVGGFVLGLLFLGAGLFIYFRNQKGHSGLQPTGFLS

Substance: EKPKVEAYKAAAAPA [Analog J5, reference compound]
- Therapeutic activity in comparison to GA (Therapeutic activity (Analogs) − Therapeutic activity GA) [1]: 3.957%
- Therapeutic activity in comparison to J5 (Therapeutic activity (Analogs) − Therapeutic activity (J5)) [1]: 0%
- Therapeutic activity = % reduction in cumulative clinical disability score [1]: 35.29%
- effect on clinical onset of disease [2]: no effect on clinical onset of disease
- change in IL-4 levels [3]: only a marginal increase

Substance: Eβ^3Kβ^3Pβ^3Kβ^3Vβ^3Eβ^3Aβ^3Yβ^3Kβ^3Aβ^3Aβ^3Aβ^3Aβ^3Pβ^3Aβ^3 [Analog S15]
- Therapeutic activity in comparison to GA (Therapeutic activity (Analogs) − Therapeutic activity GA) [1]: 30.91%
- Therapeutic activity in comparison to J5 (Therapeutic activity (Analogs) − Therapeutic activity (J5)) [1]: 26.95%
- efficacy relative to GA ([1]; both treatment and pre-treatment scenarios): approximately two times better
- Therapeutic activity = % reduction in cumulative clinical disability score [1]: 62.25%
- delay of clinical onset of disease [2]: ~3 days

Substance: FPFNVPTNIVKVERH (Peptide analog) [scrambled MBP (85-99)]
- inhibition of binding of biotinylated MBP (85-99) to HLA DR2 [4]: ~15%

Substance: KβVβEβAβYβKβAβAβAβAβ [Analog S64]
- Therapeutic activity in comparison to GA (Therapeutic activity (Analogs) − Therapeutic activity GA) [1]: −7.38%
- Therapeutic activity in comparison to J5 (Therapeutic activity (Analogs) − Therapeutic activity (J5)) [1]: −11.3369%
- Therapeutic activity = % reduction in cumulative clinical disability score [1]: 23.96%

Substance: Kβ^3Vβ^3EAYβ^3Kβ^3 [Analog S34]
- Therapeutic activity in comparison to GA (Therapeutic activity (Analogs) − Therapeutic activity GA) [1]: 25.03%
- Therapeutic activity in comparison to J5 (Therapeutic activity (Analogs) − Therapeutic activity (J5)) [1]: 21.07%
- Therapeutic activity = % reduction in cumulative clinical disability score [1]: 56.36%

Substance: Kβ^3Vβ^3EAYβ^3Kβ^3Aβ^3Aβ^3Aβ^3Aβ^3 [Analog S26]
- Therapeutic activity in comparison to GA (Therapeutic activity (Analogs) − Therapeutic activity GA) [1]: 27.91%
- Therapeutic activity in comparison to J5 (Therapeutic activity (Analogs) − Therapeutic activity (J5)) [1]: 23.96%
- Therapeutic activity = % reduction in cumulative clinical disability score [1]: 59.25%

Substance: Kβ^3Vβ^3Eβ^3AβYβ^3Kβ^3AβAβAβAβ^3 [Analog S81]
- Therapeutic activity in comparison to GA (Therapeutic activity (Analogs) − Therapeutic activity GA) [1]: 31.12%
- Therapeutic activity in comparison to J5 (Therapeutic activity (Analogs) − Therapeutic activity (J5)) [1]: 27.17%
- Therapeutic activity = % reduction in cumulative clinical disability score [1]: 62.46%

Substance: Kβ^3Vβ^3Eβ^3AβYβ^3Kβ^3AβAβAβ^3Aβ^3 [Analog S82]
- Therapeutic activity in comparison to GA (Therapeutic activity (Analogs) − Therapeutic activity GA) [1]: 31.87%
- Therapeutic activity in comparison to J5 (Therapeutic activity (Analogs) − Therapeutic activity (J5)) [1]: 27.91%
- Therapeutic activity = % reduction in cumulative clinical disability score [1]: 63.21%

Substance: Kβ^3Vβ^3Eβ^3Aβ^3Yβ^3Kβ^3 [Analog S33]
- Therapeutic activity in comparison to GA (Therapeutic activity (Analogs) − Therapeutic activity GA) [1]: 14.44%
- Therapeutic activity in comparison to J5 (Therapeutic activity (Analogs) − Therapeutic activity (J5)) [1]: 10.48%
- Therapeutic activity = % reduction in cumulative clinical disability score [1]: 45.7754%

Substance: VEAYK (Peptide analog) [Analog J5c, reference compound]
- Therapeutic activity in comparison to GA (Therapeutic activity (Analogs) − Therapeutic activity GA) [1]: −9.947%
- Therapeutic activity in comparison to J5 (Therapeutic activity (Analogs) − Therapeutic activity (J5)) [1]: −13.9037%
- Therapeutic activity = % reduction in cumulative clinical disability score [1]: 21.39%

Substance: VEAYKβ (VEAY[Kβ″]) [Analog S73]
- Therapeutic activity in comparison to GA (Therapeutic activity (Analogs) − Therapeutic activity GA) [1]: −10.0535%
- Therapeutic activity in comparison to J5 (Therapeutic activity (Analogs) − Therapeutic activity (J5)) [1]: −14.0107%
- Therapeutic activity = % reduction in cumulative clinical disability score [1]: 21.28%

Substance: VEAYKβ^3 (VEAY[β3hK]) [Analog S35]
- Therapeutic activity in comparison to GA (Therapeutic activity (Analogs) − Therapeutic activity GA) [1]: −6.952%
- Therapeutic activity in comparison to J5 (Therapeutic activity (Analogs) − Therapeutic activity (J5)) [1]: −10.9091%
- Therapeutic activity = % reduction in cumulative clinical disability score [1]: 24.39%

Substance: VEAYβKβ (VEA[Yβ][Kβ(3)]) [Analog S74]
- Therapeutic activity in comparison to GA (Therapeutic activity (Analogs) − Therapeutic activity GA) [1]: −9.947%
- Therapeutic activity in comparison to J5 (Therapeutic activity (Analogs) − Therapeutic activity (J5)) [1]: −13.9037%
- Therapeutic activity = % reduction in cumulative clinical disability score [1]: 21.39%

Substance: VEAYβ^3Kβ^3 (VEA[β3hY][β3hK]) [Analog S36]
- Therapeutic activity in comparison to GA (Therapeutic activity (Analogs) − Therapeutic activity GA) [1]: −2.46%
- Therapeutic activity in comparison to J5 (Therapeutic activity (Analogs) − Therapeutic activity (J5)) [1]: −6.417%
- Therapeutic activity = % reduction in cumulative clinical disability score [1]: 28.88%

Substance: VEAβYβKβ [Analog S75]
- Therapeutic activity in comparison to GA (Therapeutic activity (Analogs) − Therapeutic activity GA) [1]: −5.5615%
- Therapeutic activity in comparison to J5 (Therapeutic activity (Analogs) − Therapeutic activity (J5)) [1]: −9.519%
- Therapeutic activity = % reduction in cumulative clinical disability score [1]: 25.7754%

Substance: VEAβ^3Yβ^3Kβ^3 [Analog S37]
- Therapeutic activity in comparison to GA (Therapeutic activity (Analogs) − Therapeutic activity GA) [1]: −0.9626%
- Therapeutic activity in comparison to J5 (Therapeutic activity (Analogs) − Therapeutic activity (J5)) [1]: −4.92%
- Therapeutic activity = % reduction in cumulative clinical disability score [1]: 30.37%

Substance: VEβAβYβKβ [Analog S76]
- Therapeutic activity in comparison to GA (Therapeutic activity (Analogs) − Therapeutic activity GA) [1]: −7.914%
- Therapeutic activity in comparison to J5 (Therapeutic activity (Analogs) − Therapeutic activity (J5)) [1]: −11.8717%
- Therapeutic activity = % reduction in cumulative clinical disability score [1]: 23.42%

Substance: VEβ^3Aβ^3Yβ^3Kβ^3 [Analog S38]
- Therapeutic activity in comparison to GA (Therapeutic activity (Analogs) − Therapeutic activity GA) [1]: −4.813%
- Therapeutic activity in comparison to J5 (Therapeutic activity (Analogs) − Therapeutic activity (J5)) [1]: −8.77%
- Therapeutic activity = % reduction in cumulative clinical disability score [1]: 26.52%

Substance: VβEAYβKβ [Analog S78]
- Therapeutic activity in comparison to GA (Therapeutic activity (Analogs) − Therapeutic activity GA) [1]: −11.9037%
- Therapeutic activity in comparison to J5 (Therapeutic activity (Analogs) − Therapeutic activity (J5)) [1]: −15.861%
- Therapeutic activity = % reduction in cumulative clinical disability score [1]: 19.43%

Substance: VβEβAβYβKβ [Analog S77]
- Therapeutic activity in comparison to GA (Therapeutic activity (Analogs) − Therapeutic activity GA) [1]: −18.8235%
- Therapeutic activity in comparison to J5 (Therapeutic activity (Analogs) − Therapeutic activity (J5)) [1]: −22.7808%
- Therapeutic activity = % reduction in cumulative clinical disability score [1]: 12.51%

Substance: Vβ^3EAYβ^3Kβ^3 [Analog S40]
- Therapeutic activity in comparison to GA (Therapeutic activity (Analogs) − Therapeutic activity GA) [1]: 13.9%
- Therapeutic activity in comparison to J5 (Therapeutic activity (Analogs) − Therapeutic activity (J5)) [1]: 9.947%
- Therapeutic activity = % reduction in cumulative clinical disability score [1]: 45.24%

Substance: Vβ^3Eβ^3Aβ^3Yβ^3Kβ^3 [Analog S39]
- Therapeutic activity in comparison to GA (Therapeutic activity (Analogs) − Therapeutic activity GA) [1]: 9.519%
- Therapeutic activity in comparison to J5 (Therapeutic activity (Analogs) − Therapeutic activity (J5)) [1]: 5.561%
- Therapeutic activity = % reduction in cumulative clinical disability score [1]: 40.86%
